This note sets out measurements from the NIST ThermoML archive (doi:10.1016/j.fluid.2010.04.016).

The structures appear in SMILES notation. ± gives the expanded uncertainty stated by the source.

For the series the following is noted: Crystal; visual observation.

As to `CCCCCCCCCCO` [decan-1-ol], the Normal melting temperature came out at 7.04 ± 0.16 °C.

Take `CCCCCCCCO` [octan-1-ol]: the Normal melting temperature was -15.4 ± 0.16 °C.
